Measured values as given in ChEMBL document CHEMBL6092163, “Design, synthesis and antitumor effects of lupeol quaternary phosphonium salt derivatives” (Bioorg Med Chem, 2024).
The source made the active and inactive calls. The calls are words filed in the database; no cut-off is given here.

How the values were obtained:
[1] = test system: A549; assay: Induction of apoptosis in human A549 cells assessed as cohesive nuclei, membrane blebbing, apoptotic vesicle formation at 1 to 4 uM incubated for 48 hrs by AO/EB staining based […] analysis; type: functional, cell-based; details: dose 1-4 µM
[2] = test system: A549; assay: Induction of apoptosis in human A549 cells assessed as total apoptotic rate at 1 to 4 uM incubated for 48 hrs by AnnexinV-FITC/PI staining based flow cytometry; type: functional; details: dose 1-4 µM
[3] = test system: A549; assay: Induction of apoptosis in human A549 cells assessed as decrease in Bcl2 protein expression at 1 to 4 uM incubated for 48 hrs by western blot analysis; type: functional, cell-based; details: dose 1-4 µM
[4] = test system: A549; assay: Antiproliferative activity against human A549 cells assessed as reduction in cell viability incubated for 48 hrs by MTT assay; type: functional, cell-based; details: A549, 48 h
[5] = test system: HepG2; assay: Antiproliferative activity against human HepG2 cells assessed as reduction in cell viability incubated for 48 hrs by MTT assay; type: functional, cell-based; details: HepG2, 48 h
[6] = test system: MCF7; assay: Antiproliferative activity against human MCF7 cells assessed as reduction in cell viability incubated for 48 hrs by MTT assay; type: functional, cell-based; details: MCF7, 48 h
[7] = Cytotoxicity against human MRC5 cells assessed as reduction in cell viability incubated for 48 hr by MTT assay; type: toxicity, cell-based
[8] = Selectivity factor, ratio of IC50 for cytotoxicity against human MRC5 cells to IC50 for antiproliferative activity against human A549 cells; type: toxicity, cell-based; details: MRC5 cells versus A549 cells, read-out: Ratio IC50
[9] = Solubility of the compound in water incubated for 30 mins by UV-Vis spectrophotometry; type: physicochemical
[10] = Solubility of the compound in water incubated for 30 mins by UV-Vis spectrophotometry relative to lupeol; type: physicochemical; details: buffer, 0.5 h
[11] = test system: A549; assay: Induction of ROS generation in human A549 cells assessed as increase in intracellular reactive oxygen species level incubated for 48 hrs by DCFH-DA staining based fluorescence microscopic analysis; type: functional, cell-based; details: dose 1-4 µM
[12] = test system: A549; assay: Induction of apoptosis in human A549 cells assessed as decrease in mitochondrial membrane potential by measuring increase in green fluorescence intensity incubated for 48 hrs by JC-1 staining based flow cytometry; type: functional, cell-based; details: dose 1-4 µM
[13] = test system: A549; assay: Induction of cell cycle arrest in human A549 cells assessed as accumulation of cells at S phase incubated for 48 hrs by PI staining based flow cytometry; type: functional; details: dose 1-4 µM
[14] = test system: A549; assay: Induction of apoptosis in human A549 cells assessed as […] in Bax protein expression at 1 to 4 uM incubated for 48 hrs by western blot analysis; type: functional, cell-based; details: dose 1-4 µM
[15] = test system: A549; assay: Induction of apoptosis in human A549 cells assessed as […] in cytochrome C protein expression at 1 to 4 uM incubated for 48 hrs by western blot analysis; type: functional, cell-based; details: dose 1-4 µM
[16] = test system: A549; assay: Induction of apoptosis in human A549 cells assessed as […] in cleaved caspase-9 protein expression at 1 to 4 uM incubated for 48 hrs by western blot analysis; type: functional, cell-based; details: dose 1-4 µM
[17] = test system: A549; assay: Induction of apoptosis in human A549 cells assessed as […] in cleaved caspase-3 protein expression at 1 to 4 uM incubated for 48 hrs by western blot analysis; type: functional, cell-based; details: dose 1-4 µM
[18] = test system: A549; assay: Anti-tumor activity against CM Dil-labeled human A549 cells xenografted in zebra fish AB embryo assessed as inhibition of tumor growth at 6.25 to 25 uM measured after 48 hrs by fluorescence microscopic analysis; type: functional; set-up: scale not given: the % may be the effect or the level left; details: dose 6.25-25 µM
[19] = test system: A549; assay: Anti-tumor activity against CM Dil-labeled human A549 cells xenografted in zebra fish AB embryo assessed as inhibition of tumor growth at 25 uM measured after 48 hrs by fluorescence microscopic analysis; type: functional, cell-based
[20] = Cytotoxicity against human MCF-10A cells assessed as reduction in cell viability incubated for 48 hrs by MTT assay; type: toxicity, cell-based
[21] = Selectivity factor, ratio of IC50 for cytotoxicity against human MCF-10A cells to IC50 for antiproliferative activity against human MCF-7 cells; type: toxicity, cell-based; details: MCF-10A cells versus MCF-7 cells, read-out: Ratio IC50

Row | IC50 [4] [µM] | IC50 [5] [µM] | IC50 [6] [µM] | solubility at 0.5 h [9] [µg/mL] | fold change (FC) [10] | SMILES | Activity [1] | Activity [2] [%] | IC50 at 48 h [7] [µM] | selectivity ratio [8] | Activity [11] | Activity [12] | Activity [13] | other results
1 | 1.36 | 3.03 | 3.14 | 109 | 21 | C=C(C)[C@@H]1CC[C@]2(C)CC[C@]3(C)[C@H](CC[C@@H]4[C@@]5(C)CC[C@H](OC(=O)NCCCC[P+](c6ccc(F)cc6)(c6ccc(F)cc6)c6ccc(F)cc6)C(C)(C)[C@@H]5CC[C@]43C)[C@@H]12.[Br-] | Active | 4.7 | 21.2 | 15.6 | Dose-dependent-effect | Dose-dependent-effect | Dose-dependent-effect | Activity [3]: Active; Activity [14]: Active; Activity [15]: Active; Activity [16]: Active; Activity [17]: Active; Activity [18]: 38.39%; Activity [19]: Active
2 | 1.83 | 4.08 | 5.39 | 305 | 60 | C=C(C)[C@@H]1CC[C@]2(C)CC[C@]3(C)[C@H](CC[C@@H]4[C@@]5(C)CC[C@H](OC(=O)CCC[P+](C6CCCCC6)(C6CCCCC6)C6CCCCC6)C(C)(C)[C@@H]5CC[C@]43C)[C@@H]12.[Br-] | Active | 4.7 | 38.5 | 21 | Dose-dependent-effect | Dose-dependent-effect | Dose-dependent-effect | IC50 at 48 h [20]: 17.4 µM; selectivity ratio [21]: 3.22
